Assay results from the supplement of paper PMC11451515.

Legend:
Settings in all cases: 48 h
P12-Ichikawa [1] = assay: cell viability relative to DMSO control; higher = less cytotoxic
Summary of the method: (§1)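 NOMO1, SEM and P12-Ichikawa leukemia cells spent at least four passages adapting to each medium before use. They were seeded at 500 cells/well (NOMO1, SEM) or 1000 cells/well (P12-Ichikawa) in 5 μl in 1536-well plates and pin-dosed with library compounds in DMSO at 11 threefold steps from 47 μM down to 0.79 nM. After 48 h at 37°C, CellTiter-Glo One luminescence was read. Viability is reported as a percentage of the DMSO wells on each plate, with cell-free wells as background.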

SEM cells = assay: as above
Summary of the method: as §1

NOMO1 = assay: AUC of viability dose-response curve (% viability x log10 dose units); higher = less sensitive
Summary of the method: (§2)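 Leukemia cells adapted to each medium (500 or 1000 cells/well, 1536-well plates) were exposed to library compounds in DMSO for 48 h at 37°C at 11 threefold doses, 47 μM to 0.79 nM. Luminescence by CellTiter-Glo One was normalised per plate to DMSO and cell-free wells, then fitted with a four-parameter log-logistic curve on log10 dose. Curves above full viability were scaled and quality-control failures removed before area under the curve was integrated by trapezoidal rule.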

P12-Ichikawa [2] = assay: as above
Summary of the method: as §2

Cn1cnc(-c2cc3nccc(Oc4ccc(NC(=S)NC(=O)Cc5ccccc5)cc4F)c3s2)c1
cell viability [%]
Settings	HPLM + 10% dialyzed FBS	RPMI 5 mM glucose + 10% FBS	RPMI 5 mM glucose + 10% dialyzed FBS
P12-Ichikawa [1], 0.000781 µM	–	–	80.4
P12-Ichikawa [1], 0.00234 µM	–	–	87.6
P12-Ichikawa [1], 0.00702 µM	–	–	83.1
P12-Ichikawa [1], 0.0211 µM	–	–	91.8
P12-Ichikawa [1], 0.0632 µM	–	–	96.9
P12-Ichikawa [1], 0.19 µM	–	–	93.7
P12-Ichikawa [1], 0.569 µM	–	–	85.6
P12-Ichikawa [1], 1.71 µM	–	–	95.9
P12-Ichikawa [1], 5.12 µM	–	82.7	82.6
P12-Ichikawa [1], 15.4 µM	–	58.5	66.3
P12-Ichikawa [1], 46.1 µM	–	7.61	15.4
SEM cells, 0.000781 µM	53.6	82.5	68.9
SEM cells, 0.00234 µM	82.3	94.7	63.1
SEM cells, 0.00702 µM	67.1	85.6	70
SEM cells, 0.0211 µM	57.5	68.4	43.8
SEM cells, 0.0632 µM	46	53.7	35.3
SEM cells, 0.19 µM	46.9	66.1	36
SEM cells, 0.569 µM	43.9	46.2	35.3
SEM cells, 1.71 µM	30.5	38.2	25.4
SEM cells, 5.12 µM	31.2	30.5	24.7
SEM cells, 15.4 µM	32.4	24.8	20.1
SEM cells, 46.1 µM	12.8	2.88	4.88

AUC of viability dose-response curve
Settings	HPLM + 10% dialyzed FBS	RPMI 5 mM glucose + 10% FBS	RPMI 5 mM glucose + 10% dialyzed FBS
NOMO1	393	395	397
P12-Ichikawa [2]	391	374	395
